Source: US8952157B2, “Apoptosis-inducing agents for the treatment of cancer and immune and autoimmune diseases” (AbbVie Inc., priority 2008, dated 2015)

target: GST-Bcl-2 (Homo sapiens (Human), UniProt P10415); assay: Time Resolved-Fluorescence Resonance Energy Transfer (TR-FRET) Bcl-2 binding assay; details: GST-Bcl-2 1 nM, F-Bak peptide probe 100 nM, Tb-anti-GST antibody 1 nM; Ki by Wang's equation
Method: Determination of the utility of compounds having Formula (I) as binders to and inhibitors of anti-apoptotic Bcl-2 proteins was performed using the Time Resolved-Fluorescence Resonance Energy Transfer (TR-FRET) Assay. Tb-anti-GST antibody was purchased from Invitrogen (Catalog No. PV4216).
(§1) Representative compounds were serially diluted in dimethyl sulfoxide (DMSO) starting at 50 μM (2× starting concentration; 10% DMSO) and 10 μL were transferred into a 384-well plate. The samples are then mixed on a shaker for 1 minute and incubated for an additional 3 hours at room temperature. For each assay, the probe/antibody and protein/probe/antibody were included on each assay plate as negative and positive controls, respectively. Fluorescence was measured on the Envision (Perkin Elmer) using a 340/35 nm excitation filter and 520/525 (F-Bak peptide) and 495/510 nm (Tb-labeled anti-Histidine antibody) emission filters.
as §1, with “The” for “Representative compounds were serially diluted in dimethyl sulfoxide (DMSO) starting at 50 μM (2× starting concentration; 10% DMSO) and 10 μL were transferred into a 384-well plate. The”, “were” for “are”
The inhibition constant (Ki) is the dissociation constant of an enzyme-inhibitor complex or a protein/small molecule complex, wherein the small molecule is inhibiting binding of one protein to another protein. So a large Ki value indicates a low binding affinity and a small Ki value indicates a high binding affinity.

GST-Bcl-2, sequence (P10415 whole entry): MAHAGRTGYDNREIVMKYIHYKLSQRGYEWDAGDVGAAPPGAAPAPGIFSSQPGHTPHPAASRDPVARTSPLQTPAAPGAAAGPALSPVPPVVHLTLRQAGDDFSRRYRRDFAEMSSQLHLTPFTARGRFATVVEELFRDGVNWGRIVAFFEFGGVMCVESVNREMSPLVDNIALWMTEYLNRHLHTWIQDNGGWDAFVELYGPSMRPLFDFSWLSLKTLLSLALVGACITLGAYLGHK

With “2-(2-chlorophenoxy)-4-(4-{([2-(4-chlorophenyl)-4,4-dimethylcyclohex-1-en-1-yl]methyl}piperazin-1-yl)-N-({4-[(1,4-dimethylpiperidin-4-yl)amino]-3-nitrophenyl}sulfonyl)benzamide [Example 168]” as the compound, how does the Ki read?
The Ki was 28.3 nM.

With “4-(4-{[4-(4-chlorophenyl)-6,6-dimethyl-5,6-dihydro-2H-pyran-3-yl]methyl)}piperazin-1-yl)-2-[(6-fluoro-1H-indol-5-yl)oxy]-N-({4-[(4-fluorotetrahydro-2H-pyran-4-yl)methoxy]-3-nitrophenyl}sulfonyl)benzamide [Example 297]” as the compound, how does the Ki read?
Its Ki is < 0.01 nM.

How did the Ki turn out when `CN(C)Cc1cccc(Oc2cc(N3CCN(Cc4ccccc4-c4ccc(Cl)cc4)CC3)ccc2C(=O)NS(=O)(=O)c2ccc(NCC3CCOCC3)c([N+](=O)[O-])c2)c1` [Example 1, 4-(4-((4′-chloro-1,1′-biphenyl-2-yl)methyl)piperazin-1-yl)-2-(3-((dimethylamino)methyl)phenoxy)-N-((3-nitro-4-((tetrahydro-2H-pyran-4-ylmethyl)amino)phenyl)sulfonyl)benzamide] was run?
Its Ki is 8.35 nM.

For `CNc1cccc(Oc2cc(N3CCN(Cc4ccccc4-c4ccc(Cl)cc4)CC3)ccc2C(=O)NS(=O)(=O)c2ccc(NCC3CCOCC3)c([N+](=O)[O-])c2)c1` [Example 2, 4-(4-((4′-chloro-1,1′-biphenyl-2-yl)methyl)piperazin-1-yl)-2-(3-(methylamino)phenoxy)-N-((3-nitro-4-((tetrahydro-2H-pyran-4-ylmethyl)amino)phenyl)sulfonyl)benzamide], which Ki is on record?
The Ki was 31.5 nM.

How did the Ki turn out when `Cc1cc2cc(Oc3cc(N4CCN(CC5=C(c6ccc(Cl)cc6)CC(C)(C)CC5)CC4)ccc3C(=O)NS(=O)(=O)c3ccc(NC4CCN(C)CC4)c([N+](=O)[O-])c3)ccc2[nH]1` [Example 3, 4-(4-((2-(4-chlorophenyl)-4,4-dimethylcyclohex-1-en-1-yl)methyl)piperazin-1-yl)-2-((2-methyl-1H-indol-5-yl)oxy)-N-((4-((1-methylpiperidin-4-yl)amino)-3-nitrophenyl)sulfonyl)benzamide] was run?
The Ki was 0.827 nM.

For `Cc1cc2cc(Oc3cc(N4CCN(CC5=C(c6ccc(Cl)cc6)CC(C)(C)CC5)CC4)ccc3C(=O)NS(=O)(=O)c3ccc(NCCCN4CCOCC4)c([N+](=O)[O-])c3)ccc2[nH]1` [Example 4, 4-(4-((2-(4-chlorophenyl)-4,4-dimethylcyclohex-1-en-1-yl)methyl)piperazin-1-yl)-2-((2-methyl-1H-indol-5-yl)oxy)-N-((4-((3-morpholin-4-ylpropyl)amino)-3-nitrophenyl)sulfonyl)benzamide], which Ki is on record?
Its Ki is 2.47 nM.

Which Ki does the source give for `O=C(NS(=O)(=O)c1ccc(NCC2CCOCC2)c([N+](=O)[O-])c1)c1ccc(N2CCN(Cc3ccccc3-c3ccc(Cl)cc3)CC2)cc1Oc1ccccc1Cl` [Example 5, 4-(4-((4′-chloro-1,1′-biphenyl-2-yl)methyl)piperazin-1-yl)-2-(2-chlorophenoxy)-N-((3-nitro-4-((tetrahydro-2H-pyran-4-ylmethyl)amino)phenyl)sulfonyl)benzamide] here?
The Ki was 0.746 nM.

`O=C(NS(=O)(=O)c1ccc(NCC2CCOCC2)c([N+](=O)[O-])c1)c1ccc(N2CCN(Cc3ccccc3-c3ccc(Cl)cc3)CC2)cc1Oc1cccc(Cl)c1` [Example 6, 4-(4-((4′-chloro-1,1′-biphenyl-2-yl)methyl)piperazin-1-yl)-2-(3-chlorophenoxy)-N-((3-nitro-4-((tetrahydro-2H-pyran-4-ylmethyl)amino)phenyl)sulfonyl)benzamide] was tested. Which Ki did it give?
The Ki was 0.787 nM.

Which Ki does the source give for `O=C(NS(=O)(=O)c1ccc(NCC2CCOCC2)c([N+](=O)[O-])c1)c1ccc(N2CCN(Cc3ccccc3-c3ccc(Cl)cc3)CC2)cc1Oc1ccc(Cl)cc1` [Example 7, 4-(4-((4′-chloro-1,1′-biphenyl-2-yl)methyl)piperazin-1-yl)-2-(4-chlorophenoxy)-N-((3-nitro-4-((tetrahydro-2H-pyran-4-ylmethyl)amino)phenyl)sulfonyl)benzamide] here?
Its Ki is 2.59 nM.

For `O=C(NS(=O)(=O)c1ccc(NCC2CCOCC2)c([N+](=O)[O-])c1)c1ccc(N2CCN(Cc3ccccc3-c3ccc(Cl)cc3)CC2)cc1Oc1cccc([N+](=O)[O-])c1` [Example 8, 4-(4-((4′-chloro-1,1′-biphenyl-2-yl)methyl)piperazin-1-yl)-2-(3-nitrophenoxy)-N-((3-nitro-4-((tetrahydro-2H-pyran-4-ylmethyl)amino)phenyl)sulfonyl)benzamide], which Ki is on record?
Its Ki is 3.45 nM.

Which Ki does the source give for `O=C(NS(=O)(=O)c1ccc(NCCCN2CCOCC2)c([N+](=O)[O-])c1)c1ccc(N2CCN(Cc3ccccc3-c3ccc(Cl)cc3)CC2)cc1Oc1cccc(CO)c1` [Example 9, 4-(4-((4′-chloro-1,1′-biphenyl-2-yl)methyl)piperazin-1-yl)-2-(3-(hydroxymethyl)phenoxy)-N-((4-((3-morpholin-4-ylpropyl)amino)-3-nitrophenyl)sulfonyl)benzamide] here?
Its Ki is 0.754 nM.

`CN(C)CCCNc1ccc(S(=O)(=O)NC(=O)c2ccc(N3CCN(Cc4ccccc4-c4ccc(Cl)cc4)CC3)cc2Oc2ccccc2Cl)cc1[N+](=O)[O-]` [Example 11, 4-(4-((4′-chloro-1,1′-biphenyl-2-yl)methyl)piperazin-1-yl)-2-(2-chlorophenoxy)-N-((4-((3-(dimethylamino)propyl)amino)-3-nitrophenyl)sulfonyl)benzamide] was tested. Which Ki did it give?
The Ki was 0.171 nM.

`O=C(NS(=O)(=O)c1ccc(NCCCN2CCOCC2)c([N+](=O)[O-])c1)c1ccc(N2CCN(Cc3ccccc3-c3ccc(Cl)cc3)CC2)cc1Oc1cccc(Cl)c1` [Example 12, 4-(4-((4′-chloro-1,1′-biphenyl-2-yl)methyl)piperazin-1-yl)-2-(3-chlorophenoxy)-N-((4-((3-morpholin-4-ylpropyl)amino)-3-nitrophenyl)sulfonyl)benzamide] was tested. Which Ki did it give?
The Ki was 0.331 nM.

Which Ki does the source give for `O=C(NS(=O)(=O)c1ccc(NCCCN2CCOCC2)c([N+](=O)[O-])c1)c1ccc(N2CCN(Cc3ccccc3-c3ccc(Cl)cc3)CC2)cc1Oc1ccc(Cl)cc1` [Example 13, 4-(4-((4′-chloro-1,1′-biphenyl-2-yl)methyl)piperazin-1-yl)-2-(4-chlorophenoxy)-N-((4-((3-morpholin-4-ylpropyl)amino)-3-nitrophenyl)sulfonyl)benzamide] here?
The Ki was 1.62 nM.

Which Ki does the source give for `CN(C)CCCNc1ccc(S(=O)(=O)NC(=O)c2ccc(N3CCN(Cc4ccccc4-c4ccc(Cl)cc4)CC3)cc2Oc2cccc(Cl)c2)cc1[N+](=O)[O-]` [Example 14, 4-(4-((4′-chloro-1,1′-biphenyl-2-yl)methyl)piperazin-1-yl)-2-(3-chlorophenoxy)-N-((4-((3-(dimethylamino)propyl)amino)-3-nitrophenyl)sulfonyl)benzamide] here?
The Ki was 0.079 nM.

Which Ki does the source give for `CN(C)CCCNc1ccc(S(=O)(=O)NC(=O)c2ccc(N3CCN(Cc4ccccc4-c4ccc(Cl)cc4)CC3)cc2Oc2ccc(Cl)cc2)cc1[N+](=O)[O-]` [Example 15, 4-(4-((4′-chloro-1,1′-biphenyl-2-yl)methyl)piperazin-1-yl)-2-(4-chlorophenoxy)-N-((4-((3-(dimethylamino)propyl)amino)-3-nitrophenyl)sulfonyl)benzamide] here?
The Ki was 0.586 nM.

With `CN(C)CCCNc1ccc(S(=O)(=O)NC(=O)c2ccc(N3CCN(Cc4ccccc4-c4ccc(Cl)cc4)CC3)cc2Oc2cccc3c2ccn3C)cc1[N+](=O)[O-]` [Example 16, 4-(4-((4′-chloro-1,1′-biphenyl-2-yl)methyl)piperazin-1-yl)-N-((4-((3-(dimethylamino)propyl)amino)-3-nitrophenyl)sulfonyl)-2-((1-methyl-1H-indol-4-yl)oxy)benzamide] as the compound, how does the Ki read?
The Ki was 3.04 nM.

With `CC(=O)Nc1cccc(Oc2cc(N3CCN(Cc4ccccc4-c4ccc(Cl)cc4)CC3)ccc2C(=O)NS(=O)(=O)c2ccc(NCC3CCOCC3)c([N+](=O)[O-])c2)c1` [Example 17, 2-(3-(acetylamino)phenoxy)-4-(4-((4′-chloro-1,1′-biphenyl-2-yl)methyl)piperazin-1-yl)-N-((3-nitro-4-((tetrahydro-2H-pyran-4-ylmethyl)amino)phenyl)sulfonyl)benzamide] as the compound, how does the Ki read?
The Ki was 5.58 nM.

For `Nc1ccc(Oc2cc(N3CCN(Cc4ccccc4-c4ccc(Cl)cc4)CC3)ccc2C(=O)NS(=O)(=O)c2ccc(NCC3CCOCC3)c([N+](=O)[O-])c2)cc1` [Example 18, 2-(4-aminophenoxy)-4-(4-((4′-chloro-1,1′-biphenyl-2-yl)methyl)piperazin-1-yl)-N-((3-nitro-4-((tetrahydro-2H-pyran-4-ylmethyl)amino)phenyl)sulfonyl)benzamide], which Ki is on record?
The Ki was 2.49 nM.

How did the Ki turn out when `Nc1cccc(Oc2cc(N3CCN(Cc4ccccc4-c4ccc(Cl)cc4)CC3)ccc2C(=O)NS(=O)(=O)c2ccc(NCC3CCOCC3)c([N+](=O)[O-])c2)c1` [Example 19, 2-(3-aminophenoxy)-4-(4-((4′-chloro-1,1′-biphenyl-2-yl)methyl)piperazin-1-yl)-N-((3-nitro-4-((tetrahydro-2H-pyran-4-ylmethyl)amino)phenyl)sulfonyl)benzamide] was run?
The Ki was 1.68 nM.

`COc1cccc(Oc2cc(N3CCN(Cc4ccccc4-c4ccc(Cl)cc4)CC3)ccc2C(=O)NS(=O)(=O)c2ccc(NCC3CCOCC3)c([N+](=O)[O-])c2)c1` [Example 20, 4-(4-((4′-chloro-1,1′-biphenyl-2-yl)methyl)piperazin-1-yl)-2-(3-methoxyphenoxy)-N-((3-nitro-4-((tetrahydro-2H-pyran-4-ylmethyl)amino)phenyl)sulfonyl)benzamide] was tested. Which Ki did it give?
The Ki was 3.96 nM.
